# Measured values: patent publication US20240368192A1, “Nitrogen-Containing Heterocyclic Compound, and Preparation Method Therefor, Intermediate Thereof, and Application Thereof” (Shanghai Allist Pharmaceuticals Co., Ltd., priority 2021, published 2024)
# Key:
# Ba/F3 KRAS-G12D cells = Ba/F3 KRAS-G12D cells (Homo sapiens, UniProt P01116, G12D, cells depend on it); assay: Proliferation inhibitory activity on Ba/F3 KRAS-G12D stably transfected cell line (CellTiter-Glo, 72 hours); type: cell-based, mouse; conditions: read-out: Ba/F3 KRAS-G12D IC50
# Chain of Ba/F3 KRAS-G12D cells (P01116 whole entry G12D): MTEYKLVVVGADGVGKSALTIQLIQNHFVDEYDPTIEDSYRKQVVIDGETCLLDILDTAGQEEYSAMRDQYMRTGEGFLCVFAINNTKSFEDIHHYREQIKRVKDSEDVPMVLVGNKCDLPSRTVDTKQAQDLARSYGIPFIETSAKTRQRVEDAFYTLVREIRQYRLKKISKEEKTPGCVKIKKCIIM
# From the text: (§1) Test Example 1: Proliferation Inhibitory Activity on Ba/F3 KRAS-G12D, Ba/F3 KRAS-G12V Stably Transfected Cell Lines and AGS Tumor Cell Lines Containing KRAS G12D Mutations
# (§2) To determine the proliferation inhibitory activity of the compounds in vitro on mouse pro-B cells Ba/F3 (Ba/F3 KRAS-G12D and Ba/F3 KRAS-G12V cells stably expressing KRAS G12D/V mutant proteins) and gastric cancer AGS cells expressing KRAS G12D mutant protein.
# (§3) Cell sources. Ba/F3 KRAS-G12D and Ba/F3 KRAS-G12V were purchased from Kyinno Biotech (Beijing) Co., Ltd, Cat. No.: KC-1259 and KC-1261, respectively; AGS was purchased from Shanghai Bioleaf Biotech Co., Ltd.
# (§4) Cells in the logarithmic growth phase were seeded in a 96-well plate (8000, 8000, 4000 cells/well, 90 μL/well for Ba/F3 KRAS-G12D, Ba/F3 KRAS-G12V, and AGS cells respectively), incubated at 37° C. for 1 day with 5% CO2, and then a gradient dilution of the test compound was added thereto (compounds 1 to 28 and comparative compounds). The details were as follows, the compound stock solution (10 mM) previously dissolved in DMSO was diluted to 10 gradient concentrations at a fold ratio (4 fold) and diluted to 10 fold of the target concentration in another 96-well plate with culture medium, and then 10 μL/well of the compound solution was added to the 96-well plate seeded with cells to reach the target concentration (10000, 2500, 625, 156, 39, 10, 2.5, 0.6, 0.15, 0.04 nM). Each concentration was provided with 3 duplicate wells and a blank control. After continued incubation at 37° C. and 5% CO2 for 72 hours, 50 μL of CellTiter-Glo*2.0 reagent (luciferase ATP bioluminescence detection reagent, purchased from Promega, Cat. No.: G9243) was added to each well, shaken for 2 minutes, and incubated at room temperature for 8 minutes, and then fluorescence luminescence intensity was detected (light collection time was 100 ms). The inhibitory rate of compounds with various concentrations on cell proliferation was calculated. Cell proliferation inhibition rate (%)=[(luminous intensitycontrol group containing cell culture medium for 72 hour−luminous intensitycompound group for 72 hour)/(luminous intensitycontrol group containing cell culture medium for 72 hours−luminous intensitycontrol group without cell culture medium for 72 hour)]×100%. GraphPad Prism 8.3 software was used to analyze the data, and nonlinear S-curve regression was used to fit the data to obtain a dose-effect curve, from which the IC50 value was calculated.
# AGS cells = assay: Proliferation inhibitory activity on AGS tumor cell line containing KRAS G12D mutation (CellTiter-Glo, 72 hours); type: cell-based; conditions: Homo sapiens
# From the text: as §1, §2, §3, §4
# Ba/F3 KRAS-G12V cells = Ba/F3 KRAS-G12V cells (Homo sapiens, UniProt P01116, G12V, cells depend on it); assay: Proliferation inhibitory activity on Ba/F3 KRAS-G12V stably transfected cell line (CellTiter-Glo, 72 hours); type: cell-based, mouse; conditions: read-out: Ba/F3 KRAS-G12V IC50
# Chain of Ba/F3 KRAS-G12V cells (P01116 whole entry G12V): as the sequence (P01116 whole entry G12D) above, with D12V counted along it
# From the text: as §1, §2, §3, §4
# HPAC cells = assay: In vivo efficacy in HPAC cell line xenograft tumor model; conditions: 30 mg/kg intraperitoneally twice a day for 10 days, day 10 vs day 0, HPAC xenograft in BALB/c nude mice
# Method: Test Example 2: In Vivo Efficacy of Test Compounds in HPAC Model
# This experiment is used to evaluate the in vivo efficacy of compounds in the HPAC model.
# Source of experimental animals: Beijing Vital River Laboratory Animal Technology Co., Ltd., certificate number: 20170011007990.
# Animal modeling and random grouping: HPAC cells were cultured and expanded to 30 T175 cm^2 culture flasks. Cells were collected, resuspended in serum-free culture medium DMEM for counting, and added with matrix glue at a ratio of 1:1, and inoculated into the right anterior subcutaneous region of BALB/c Nude mice at 5×10^6 cells/0.1 mL. When the average tumor volume reached approximately 281 mm^3, mice were randomly divided into various experimental groups according to tumor size, with 5 mice per group. The day of grouping was defined as day 0, that is, DO.
# Experimental scheme: BALB/c nude mice were subcutaneously inoculated with HPAC cells to establish a cell line xenograft tumor model. The test was divided into a 30 mg/kg group of compound 21, a 30 mg/kg group of comparative compound, and a vehicle group, with 5 mice in each group. […] During the entire experiment, the body weight and tumor size of the mice were measured on days 4, 7, and 10 to observe whether toxic reactions occurred. Efficacy was evaluated based on relative tumor proliferation rate. […]
# [1] = Body weight change of mice in HPAC xenograft model; type: in vivo; conditions: 30 mg/kg intraperitoneally twice a day for 10 days, vs D0 weight, HPAC xenograft in BALB/c nude mice
# Method: Experimental scheme: BALB/c nude mice were subcutaneously inoculated with HPAC cells to establish a cell line xenograft tumor model. The test was divided into a 30 mg/kg group of compound 21, a 30 mg/kg group of comparative compound, and a vehicle group, with 5 mice in each group. The mice were administered intraperitoneally in an administration volume of 10 μL/g. The vehicle group was given an equal amount of vehicle (sulfobutyl-β-cyclodextrin sodium salt dissolved in 50 mM citric acid buffer, the mass-to-volume concentration of sulfobutyl-β-cyclodextrin sodium salt was 10%, and the pH value of the vehicle was 5.0), administered twice a day for 10 days. During the entire experiment, the body weight and tumor size of the mice were measured on days 4, 7, and 10 to observe whether toxic reactions occurred. Efficacy was evaluated based on relative tumor proliferation rate. Other compounds of the present disclosure (compounds 1 to 20 and 22 to 28) were tested with reference to compound 21. Formula for calculating weight change: weight change (%)=(weight/D0 weight−1)×100%.
smiles,measurement,setting,value
"C#Cc1c(F)ccc2cc(O)cc(-c3nc(Cl)c4c(N5C[C@H]6CC[C@@H](C5)N6)nc(OC[C@@]56CCCN5C[C@H](F)C6)nc4c3F)c12 [Compound 21, 4-(4-((1R,5S)-3,8-Diazabicyclo[3.2.1]octan-3-yl)-5-chloro-8-fluoro-2-(((2R,7aS)-2-fluorohexahydro-1H-pyrrolizin-7a-yl)methoxy)pyrido[4,3-d]pyrimidin-7-yl)-5-ethynyl-6-fluoronaphthalen-2-ol]",GI50,Ba/F3 KRAS-G12D cells,1 nM
same,IC50,AGS cells,9 nM
same,GI50,Ba/F3 KRAS-G12V cells,5000 to 10000 nM
same,T/C % (relative tumor proliferation rate),HPAC cells,−64.96%
same,Weight change (%),[1],−7.27%
